These results are taken from patent publication US20030232994A1, “Bicyclic thiophene derivatives and combinatorial libraries thereof” (priority 2001, published 2003).

Molecules are shown by their SMILES.

The subject of this experiment is Streptococcus pyogenes (ATCC# 97-03 14289). Description: Anti-microbial screen (growth inhibition, OD 570 nm). Type of experiment: cell-based. The settings on record: growth in Todd Hewitt Broth, plates read at 570 nm at 0 time and 4 hours, color corrected. As to the method: Streptococcus pyogenes (ATCC# 97-03 14289) was grown in Todd Hewitt Broth (THB) (Difco Laboratories #0492-17-6) overnight until reaching an optical density of (OD=0.636 @ 570 nm) by reading 0.1 ml in a 96 well microtiter plate in a Molecular Devices Thermomax. This preparation was kept frozen as stocks in 30% v/v glycerol in 1.5 ml aliquots at −70^mC. until use. Prior to experiments, […] aliquots were thawed and diluted into 50 ml 2×THB. 60 ul of this dilution was added to 92 wells of microtiter plate. To three wells THB (200 ul) was added to serve as a blank and a sterility control. Test compounds in DMSO and appropriate concentrations of DMSO were added to Growth/Solvent Controls at 0 time. Plates were read at 0 time at 570 nm in the Molecular Devices plate reader to obtain compounds correction factors for insoluble or colored compounds. Plates were read again at 4 hours.
Percent inhibition is calculated with the following formulae: [drawing 4]
Color correct=O.D. 0 hr−Blank 0 hr)−(Solvent Control 0 hr−Blank 0 hr)
% Inhibition=100−O.D. test compound 4 hr−Blank 4 hr−color correct O.D. growth/solvent control 4 hr−Blank 4 hr
Usually % Inhibition stands for the share of the control response that was lost under treatment. A lower % Inhibition goes with a response near the control. As to `CC(C)(C)c1ccc(C(=O)Nc2sc3c(c2C(=O)O)CCN(C(=O)C2CCC2)C3)cc1`, the “% Inhibition” value turned out to be 98.89%.

On to `O=C(Nc1sc2c(c1C(=O)O)CCN(C(=O)c1cccc(Cl)c1)C2)c1ccccc1`, for which the “% Inhibition” value came to 94.99%.

On to `CCCSc1ncccc1C(=O)N1CCc2c(sc(NC(=O)c3ccccc3Cl)c2C(=O)O)C1`, for which the “% Inhibition” value was 94.82%.

For `O=C(Nc1sc2c(c1C(=O)O)CCN(C(=O)c1ccoc1)C2)c1ccccc1`, the “% Inhibition” value is 94.53%.

With `O=C(Nc1sc2c(c1C(=O)O)CCN(C(=O)CCc1ccc(F)c(F)c1)C2)c1ccccc1Cl`, the “% Inhibition” value was determined as 94.52%.

As to `O=C(Nc1sc2c(c1C(=O)O)CCN(C(=O)c1ccsc1)C2)c1ccccc1`, the “% Inhibition” value came out at 93.59%.

Regarding `O=C(Nc1sc2c(c1C(=O)O)CCN(C(=O)/C=C/c1ccc(Cl)cc1)C2)c1ccccc1`, the “% Inhibition” value is listed as 93.13%.

With `Cc1ccsc1C(=O)N1CCc2c(sc(NC(=O)c3ccccc3)c2C(=O)O)C1`, the “% Inhibition” value amounted to 93.13%.

Turning to `Cc1ccccc1C(=O)N1CCc2c(sc(NC(=O)C3CCCCC3)c2C(=O)O)C1`, the “% Inhibition” value was determined as 69.29%.

On to `Cc1ccc(C(=O)N2CCc3c(sc(NC(=O)c4ccccc4Cl)c3C(=O)O)C2)cn1`, for which the “% Inhibition” value is reported as 69.18%.

`COc1cccc(C(=O)N2CCc3c(sc(NC(=O)[C@]45C[C@H]6C[C@@H](C[C@H](C6)C4)C5)c3C(=O)O)C2)c1OC`: the “% Inhibition” value is reported as 68.91%.

For `CC(CC(=O)Nc1sc2c(c1C(=O)O)CCN(C(=O)c1cccc3ccccc13)C2)CC(C)(C)C` (stereo not shown), the “% Inhibition” value came out at 68.89%.

For the molecule `Cc1ccsc1C(=O)N1CCc2c(sc(NC(=O)c3ccc(C(C)(C)C)cc3)c2C(=O)O)C1`, the “% Inhibition” value came out at 68.74%.

Consider `O=C(Nc1sc2c(c1C(=O)O)CCN(C(=O)/C=C/c1ccc(Cl)cc1)C2)c1ccccc1Cl`, for which the “% Inhibition” value worked out at 68.58%.

`CCC(C(=O)Nc1sc2c(c1C(=O)O)CCN(C(=O)c1ccccc1SC)C2)c1ccccc1` (stereo not shown): the “% Inhibition” value was 68.58%.

`CC(C)(C)c1ccc(C(=O)Nc2sc3c(c2C(=O)O)CCN(C(=O)c2ccc(Cl)cc2)C3)cc1`: the “% Inhibition” value came out at 68.41%.

As for `COc1ccc(OC)c(C(=O)N2CCc3c(sc(NC(=O)CC(C)CC(C)(C)C)c3C(=O)O)C2)c1` (stereo not shown), the “% Inhibition” value stood at 68.17%.

On to `O=C(Nc1sc2c(c1C(=O)O)CCN(C(=O)C1CCC1)C2)c1ccc(Cl)cc1`, for which the “% Inhibition” value is 67.98%.

`CCOc1ncccc1C(=O)N1CCc2c(sc(NC(=O)c3ccc(CC)cc3)c2C(=O)O)C1`: the “% Inhibition” value is recorded as 67.76%.

Turning to `O=C(CCC1CCCC1)Nc1sc2c(c1C(=O)O)CCN(C(=O)/C=C/c1ccc(Cl)cc1)C2`, the “% Inhibition” value is 67.51%.

Regarding `O=C(O)c1c(NC(=O)C2CCCCC2)sc2c1CCN(C(=O)/C=C/c1ccc(Cl)cc1)C2`, the “% Inhibition” value worked out at 67.5%.

Turning to `O=C(Nc1sc2c(c1C(=O)O)CCN(C(=O)c1cc3ccccc3s1)C2)c1ccccc1`, the “% Inhibition” value stood at 67.5%.

In the case of `CCCc1ccc(C(=O)Nc2sc3c(c2C(=O)O)CCN(C(=O)c2ccc(Cl)cc2OC)C3)cc1`, the “% Inhibition” value came out at 67.49%.

`CCc1ccc(C(=O)Nc2sc3c(c2C(=O)O)CCN(C(=O)c2cccc4ccccc24)C3)cc1`: the “% Inhibition” value is 67.43%.

`Cc1ccc(C)c(CC(=O)N2CCc3c(sc(NC(=O)c4ccc5ccccc5c4)c3C(=O)O)C2)c1`: the “% Inhibition” value is 67.34%.

Consider `CSc1ccccc1C(=O)N1CCc2c(sc(NC(=O)c3ccccc3Cl)c2C(=O)O)C1`, for which the “% Inhibition” value was determined as 67.09%.

In the case of `O=C(Nc1sc2c(c1C(=O)O)CCN(C(=O)c1ccccc1C(F)(F)F)C2)c1ccc(Cl)cc1`, the “% Inhibition” value was 67.09%.

As for `CCCSc1ncccc1C(=O)N1CCc2c(sc(NC(=O)c3ccc4ccccc4c3)c2C(=O)O)C1`, the “% Inhibition” value was found to be 67.03%.

With `CCCc1ccc(C(=O)Nc2sc3c(c2C(=O)O)CCN(C(=O)C2CCCCC2)C3)cc1`, the “% Inhibition” value was 66.83%.

On to `CCCSc1ncccc1C(=O)N1CCc2c(sc(NC(=O)c3ccc(Cl)cc3)c2C(=O)O)C1`, for which the “% Inhibition” value was 66.79%.

Turning to `O=C(O)c1c(NC(=O)C2CCCCC2)sc2c1CCN(C(=O)CCc1ccc(F)c(F)c1)C2`, the “% Inhibition” value turned out to be 66.79%.

As for `CCC(C(=O)Nc1sc2c(c1C(=O)O)CCN(C(=O)c1cc3ccccc3s1)C2)c1ccccc1` (stereo not shown), the “% Inhibition” value came to 66.79%.

Regarding `O=C(Nc1sc2c(c1C(=O)O)CCN(C(=O)c1ccsc1)C2)c1ccco1`, the “% Inhibition” value is given as 66.72%.

With `O=C(Nc1sc2c(c1C(=O)O)CCN(C(=O)c1ccc(F)cc1F)C2)c1ccc2ccccc2c1`, the “% Inhibition” value turned out to be 66.41%.

In the case of `O=C(CCC1CCCC1)Nc1sc2c(c1C(=O)O)CCN(C(=O)c1ccc(Cl)cc1)C2`, the “% Inhibition” value is 66.09%.

Turning to `O=C(Nc1sc2c(c1C(=O)O)CCN(C(=O)c1cccc3ccccc13)C2)c1ccccc1Cl`, the “% Inhibition” value worked out at 65.9%.

For `CC(C)C(=O)N1CCc2c(sc(NC(=O)c3ccc4ccccc4c3)c2C(=O)O)C1`, the “% Inhibition” value worked out at 65.78%.

For the molecule `O=C(Nc1sc2c(c1C(=O)O)CCN(C(=O)CC1CCCC1)C2)c1ccco1`, the “% Inhibition” value amounted to 65.78%.

On to `CCCCOc1ccc(C(=O)Nc2sc3c(c2C(=O)O)CCN(C(=O)CC)C3)cc1`, for which the “% Inhibition” value was determined as 65.64%.

For `O=C(CCC1CCCC1)Nc1sc2c(c1C(=O)O)CCN(C(=O)C1CCCCC1)C2`, the “% Inhibition” value turned out to be 65.37%.

Regarding `CCc1ccc(C(=O)Nc2sc3c(c2C(=O)O)CCN(C(=O)C2CCC2)C3)cc1`, the “% Inhibition” value is given as 65.14%.

On to `Cn1cc(C(=O)N2CCc3c(sc(NC(=O)CCC4CCCC4)c3C(=O)O)C2)c2ccccc21`, for which the “% Inhibition” value is recorded as 65.02%.

On to `O=C(O)c1c(NC(=O)[C@]23C[C@H]4C[C@@H](C[C@H](C4)C2)C3)sc2c1CCN(C(=O)c1ccccc1C(F)(F)F)C2`, for which the “% Inhibition” value is reported as 64.79%.

Take `O=C(Nc1sc2c(c1C(=O)O)CCN(C(=O)c1ccc(F)cc1F)C2)c1ccccc1Cl`: the “% Inhibition” value is reported as 64.7%.

As to `COc1cccc(C(=O)N2CCc3c(sc(NC(=O)c4ccc5ccccc5c4)c3C(=O)O)C2)c1OC`, the “% Inhibition” value is on record as 64.54%.

As to `CSc1ncccc1C(=O)N1CCc2c(sc(NC(=O)c3ccc4ccccc4c3)c2C(=O)O)C1`, the “% Inhibition” value was 64.54%.

Regarding `CCCc1ccc(C(=O)Nc2sc3c(c2C(=O)O)CCN(C(=O)c2ccccc2C(F)(F)F)C3)cc1`, the “% Inhibition” value came to 64.51%.

As to `COc1cccc(C(=O)Nc2sc3c(c2C(=O)O)CCN(C(=O)c2ccccc2SC)C3)c1`, the “% Inhibition” value came to 64.5%.

Turning to `CC(C)CC(=O)N1CCc2c(sc(NC(=O)c3ccc(C(C)(C)C)cc3)c2C(=O)O)C1`, the “% Inhibition” value worked out at 64.48%.

For `CSc1ccccc1C(=O)N1CCc2c(sc(NC(=O)c3ccc(C(C)(C)C)cc3)c2C(=O)O)C1`, the “% Inhibition” value is given as 64.48%.

Consider `Cc1ccc(C(=O)N2CCc3c(sc(NC(=O)c4ccc(Cl)cc4)c3C(=O)O)C2)cn1`, for which the “% Inhibition” value worked out at 64.41%.

`O=C(Nc1sc2c(c1C(=O)O)CCN(C(=O)c1ccc(C(F)(F)F)cc1)C2)c1ccccc1Cl`: the “% Inhibition” value is 64.41%.

In the case of `CCCc1ccc(C(=O)Nc2sc3c(c2C(=O)O)CCN(C(=O)c2ccc(Cl)cc2)C3)cc1`, the “% Inhibition” value is on record as 64.18%.

For the molecule `Cc1c(F)cccc1C(=O)N1CCc2c(sc(NC(=O)C3CCCCC3)c2C(=O)O)C1`, the “% Inhibition” value came to 63.92%.

Consider `CCc1ccc(C(=O)Nc2sc3c(c2C(=O)O)CCN(C(=O)c2cccnc2SC)C3)cc1`, for which the “% Inhibition” value is recorded as 63.83%.

Turning to `COc1cccc(C(=O)Nc2sc3c(c2C(=O)O)CCN(C(=O)c2cc4ccccc4s2)C3)c1`, the “% Inhibition” value came out at 63.77%.

Turning to `O=C(Nc1sc2c(c1C(=O)O)CCN(C(=O)c1ccccc1Cl)C2)c1ccc2ccccc2c1`, the “% Inhibition” value was found to be 63.6%.

As for `Cc1ccc(C(=O)N2CCc3c(sc(NC(=O)c4ccc(Cl)cc4)c3C(=O)O)C2)c(C)c1`, the “% Inhibition” value worked out at 63.51%.

With `CCc1ccc(C(=O)Nc2sc3c(c2C(=O)O)CCN(C(=O)C2CCCCC2)C3)cc1`, the “% Inhibition” value worked out at 63.5%.

For the molecule `CC(CC(=O)Nc1sc2c(c1C(=O)O)CCN(C(=O)c1ccc(Cl)cc1)C2)CC(C)(C)C` (stereo not shown), the “% Inhibition” value was determined as 63.48%.

Turning to `COc1ccccc1C(=O)Nc1sc2c(c1C(=O)O)CCN(C(=O)c1cccc(F)c1C)C2`, the “% Inhibition” value is recorded as 63.41%.

For `O=C(Nc1sc2c(c1C(=O)O)CCN(C(=O)c1ccc(C(F)(F)F)cc1)C2)c1ccc2ccccc2c1`, the “% Inhibition” value is 63.29%.

For the molecule `CCc1ccc(C(=O)Nc2sc3c(c2C(=O)O)CCN(C(=O)c2ccc(C(F)(F)F)cc2)C3)cc1`, the “% Inhibition” value turned out to be 63.17%.

For `CCC(=O)N1CCc2c(sc(NC(=O)c3ccc4ccccc4c3)c2C(=O)O)C1`, the “% Inhibition” value came out at 62.98%.

In the case of `O=C(Nc1sc2c(c1C(=O)O)CCN(C(=O)c1ccccc1Cl)C2)c1ccc(Cl)cc1`, the “% Inhibition” value is listed as 62.91%.

Turning to `CCc1ccc(C(=O)Nc2sc3c(c2C(=O)O)CCN(C(=O)c2ccc(Cl)cc2OC)C3)cc1`, the “% Inhibition” value is recorded as 62.84%.

Turning to `Cc1ccc(C(=O)N2CCc3c(sc(NC(=O)c4ccc5ccccc5c4)c3C(=O)O)C2)cn1`, the “% Inhibition” value is listed as 62.67%.

Consider `Cc1c(F)cccc1C(=O)N1CCc2c(sc(NC(=O)c3ccccc3Cl)c2C(=O)O)C1`, for which the “% Inhibition” value amounted to 62.62%.

`CCC(C(=O)Nc1sc2c(c1C(=O)O)CCN(C(=O)c1cccc3ccccc13)C2)c1ccccc1` (stereo not shown): the “% Inhibition” value is given as 62.49%.

On to `CSc1ncccc1C(=O)N1CCc2c(sc(NC(=O)c3ccco3)c2C(=O)O)C1`, for which the “% Inhibition” value is given as 62.35%.
